Activity calls are given as the source filed them. The rule behind the calls is not given here.
Legend:
[1] = molecular target: Activin receptor type-1B (Homo sapiens) (UniProt P36896); test: Inhibition of ALK4 (unknown origin) at 1 uM in presence of ATP relative to control; values are per cent of control
[2] = molecular target: Proto-oncogene tyrosine-protein kinase receptor Ret (Homo sapiens) (UniProt P07949); test: Inhibition of Ret (unknown origin) at 1 uM in presence of ATP relative to control; values are per cent of control
[3] = molecular target: Serine/threonine-protein kinase pim-3 (Homo sapiens) (UniProt Q86V86); test: Inhibition of Pim-3 (unknown origin) at 1 uM in presence of ATP relative to control; values are per cent of control
[4] = molecular target: Testis-specific serine/threonine-protein kinase 1 (Homo sapiens) (UniProt Q9BXA7); test: Inhibition of TSSK1 (unknown origin) at 1 uM in presence of ATP relative to control; values are per cent of control
[5] = molecular target: Hepatocyte growth factor receptor (Homo sapiens) (UniProt P08581); test: Inhibition of Met (unknown origin) at 1 uM in presence of ATP relative to control; values are per cent of control
[6] = molecular target: Ephrin type-B receptor 2 (Homo sapiens) (UniProt P29323); test: Inhibition of EphB2 (unknown origin) at 1 uM in presence of ATP relative to control; values are per cent of control
[7] = molecular target: Casein kinase I isoform gamma-2 (Homo sapiens) (UniProt P78368); test: Inhibition of CK1gamma2 (unknown origin) at 1 uM in presence of ATP relative to control; values are per cent of control
[8] = molecular target: Serine/threonine-protein kinase VRK2 (Homo sapiens) (UniProt Q86Y07); test: Inhibition of VRK2 (unknown origin) at 1 uM in presence of ATP relative to control; values are per cent of control
BT-20 = test: Inhibition of cell proliferation in human BT-20 cells upto 10 umol/L incubated for 72 hrs by DAPI staining based analysis; type: functional; details: dose <= 10.0 µmol/L
[9] = molecular target: Serine/threonine-protein kinase TBK1 (Homo sapiens) (UniProt Q9UHD2); test: Inhibition of TBK1 (unknown origin) at 1 uM in presence of ATP relative to control; values are per cent of control
[10] = molecular target: Serine/threonine-protein kinase SIK1 (Homo sapiens) (UniProt P57059); test: Inhibition of SIK (unknown origin) at 1 uM in presence of ATP relative to control; values are per cent of control
[11] = molecular target: Serine/threonine-protein kinase Nek7 (Homo sapiens) (UniProt Q8TDX7); test: Inhibition of NEK7 (unknown origin) at 1 uM in presence of ATP relative to control; values are per cent of control
[12] = molecular target: Serine/threonine-protein kinase 33 (Homo sapiens) (UniProt Q9BYT3); test: Inhibition of STK33 (unknown origin) at 1 uM in presence of ATP relative to control; values are per cent of control
[13] = molecular target: Maternal embryonic leucine zipper kinase (Homo sapiens) (UniProt Q14680); test: Inhibition of MELK (unknown origin) at 1 uM in presence of ATP relative to control; values are per cent of control
SH-4 = test: Inhibition of cell proliferation in human SH-4 cells upto 10 umol/L incubated for 72 hrs by DAPI staining based analysis; type: functional; details: dose <= 10.0 µmol/L
SCC-25 = test: Inhibition of cell proliferation in human SCC-25 cells upto 10 umol/L incubated for 72 hrs by DAPI staining based analysis; type: functional; details: dose <= 10.0 µmol/L
[14] = molecular target: Ephrin type-A receptor 5 (Homo sapiens) (UniProt P54756); test: Inhibition of EphA5 (unknown origin) at 1 uM in presence of ATP relative to control; values are per cent of control
[15] = molecular target: CDK3/Cyclin E (Homo sapiens) (UniProt P24864+Q00526); test: Inhibition of CDK3/cyclinE (unknown origin) at 1 uM in presence of ATP relative to control; values are per cent of control
[16] = molecular target: CDK9/cyclin T1 (Homo sapiens) (UniProt O60563+P50750); test: Inhibition of CDK9/cyclinT1 (unknown origin) at 1 uM in presence of ATP relative to control; values are per cent of control
BHT-101 = test: Inhibition of cell proliferation in human BHT-101 cells upto 10 umol/L incubated for 72 hrs by DAPI staining based analysis; type: functional; details: dose <= 10.0 µmol/L
[17] = molecular target: Serine/threonine-protein kinase D1 (Homo sapiens) (UniProt Q15139); test: Inhibition of PKD1 (unknown origin) at 1 uM in presence of ATP relative to control; values are per cent of control
[18] = molecular target: cGMP-dependent protein kinase 1 (Homo sapiens) (UniProt Q13976); test: Inhibition of PRKG1alpha (unknown origin) at 1 uM in presence of ATP relative to control; values are per cent of control
[19] = molecular target: Ribosomal protein S6 kinase alpha-4 (Homo sapiens) (UniProt O75676); test: Inhibition of MSK2 (unknown origin) at 1 uM in presence of ATP relative to control; values are per cent of control
[20] = molecular target: Interleukin-1 receptor-associated kinase 4 (Homo sapiens) (UniProt Q9NWZ3); test: Inhibition of IRAK4 (unknown origin) at 1 uM in presence of ATP relative to control; values are per cent of control
[21] = Cmax in adult patient with recurrent LMNA-NTRK1 rearranged colorectal cancer at 100 mg administered twice a day as powder-in-capsule or liquid formulation for 22 days by LC-MS/MS analysis; type: ADME; details: human, in vivo, oral, time 22 day
CAMA-1 = test: Inhibition of cell proliferation in human CAMA-1 cells upto 10 umol/L incubated for 72 hrs by DAPI staining based analysis; type: functional; details: dose <= 10.0 µmol/L
[22] = molecular target: Glycogen synthase kinase-3 beta (Homo sapiens) (UniProt P49841); test: Inhibition of GSK3beta (unknown origin) at 1 uM in presence of ATP relative to control; values are per cent of control
[23] = molecular target: Ephrin type-A receptor 7 (Homo sapiens) (UniProt Q15375); test: Inhibition of EphA7 (unknown origin) at 1 uM in presence of ATP relative to control; values are per cent of control

Serine/threonine-protein kinase SIK1 (Homo sapiens), sequence (P57059 whole entry): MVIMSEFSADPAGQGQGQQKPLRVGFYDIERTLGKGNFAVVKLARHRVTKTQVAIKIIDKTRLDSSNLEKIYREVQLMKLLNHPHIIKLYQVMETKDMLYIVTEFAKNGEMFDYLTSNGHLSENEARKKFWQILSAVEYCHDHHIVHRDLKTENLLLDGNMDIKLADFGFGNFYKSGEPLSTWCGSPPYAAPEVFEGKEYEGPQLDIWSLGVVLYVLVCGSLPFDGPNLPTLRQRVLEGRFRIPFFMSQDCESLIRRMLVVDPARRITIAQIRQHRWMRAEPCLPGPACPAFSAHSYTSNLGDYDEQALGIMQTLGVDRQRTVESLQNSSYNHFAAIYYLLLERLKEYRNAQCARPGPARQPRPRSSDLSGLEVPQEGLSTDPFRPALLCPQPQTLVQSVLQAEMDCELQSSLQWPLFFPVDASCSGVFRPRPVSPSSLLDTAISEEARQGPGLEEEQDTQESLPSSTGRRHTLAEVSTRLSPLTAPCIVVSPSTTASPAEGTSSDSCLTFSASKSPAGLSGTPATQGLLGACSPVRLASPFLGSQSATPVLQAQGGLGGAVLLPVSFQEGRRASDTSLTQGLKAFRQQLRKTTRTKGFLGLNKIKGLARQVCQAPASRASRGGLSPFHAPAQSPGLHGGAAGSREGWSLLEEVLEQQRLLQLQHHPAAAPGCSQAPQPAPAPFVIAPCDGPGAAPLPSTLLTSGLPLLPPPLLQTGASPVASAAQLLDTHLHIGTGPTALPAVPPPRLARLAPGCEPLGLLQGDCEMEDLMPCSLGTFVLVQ
Testis-specific serine/threonine-protein kinase 1 (Homo sapiens), sequence (Q9BXA7 whole entry): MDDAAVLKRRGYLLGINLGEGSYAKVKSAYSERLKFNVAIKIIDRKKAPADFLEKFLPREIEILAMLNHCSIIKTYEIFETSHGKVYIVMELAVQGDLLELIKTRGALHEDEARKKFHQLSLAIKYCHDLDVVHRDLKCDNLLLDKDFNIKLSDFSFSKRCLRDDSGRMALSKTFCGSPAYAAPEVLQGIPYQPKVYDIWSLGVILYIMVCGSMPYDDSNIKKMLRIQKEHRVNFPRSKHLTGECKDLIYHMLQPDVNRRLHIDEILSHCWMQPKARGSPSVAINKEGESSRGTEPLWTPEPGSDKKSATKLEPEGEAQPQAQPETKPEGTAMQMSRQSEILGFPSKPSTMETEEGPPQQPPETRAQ
Serine/threonine-protein kinase 33 (Homo sapiens), sequence (Q9BYT3 whole entry, looked up): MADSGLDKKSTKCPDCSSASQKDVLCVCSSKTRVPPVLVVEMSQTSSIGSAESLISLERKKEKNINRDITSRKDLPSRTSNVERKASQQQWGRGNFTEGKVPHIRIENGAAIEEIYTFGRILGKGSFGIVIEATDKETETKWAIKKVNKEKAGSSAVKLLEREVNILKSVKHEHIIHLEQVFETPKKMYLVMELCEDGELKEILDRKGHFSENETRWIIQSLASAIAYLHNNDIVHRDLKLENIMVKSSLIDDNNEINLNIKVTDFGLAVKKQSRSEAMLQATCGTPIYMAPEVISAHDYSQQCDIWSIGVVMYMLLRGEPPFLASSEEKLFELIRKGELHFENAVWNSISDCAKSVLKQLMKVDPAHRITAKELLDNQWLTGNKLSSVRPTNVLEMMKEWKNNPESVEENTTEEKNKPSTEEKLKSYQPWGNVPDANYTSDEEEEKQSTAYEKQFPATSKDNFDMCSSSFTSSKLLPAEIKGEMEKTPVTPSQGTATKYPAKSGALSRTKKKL
Glycogen synthase kinase-3 beta (Homo sapiens), sequence (P49841 whole entry, looked up): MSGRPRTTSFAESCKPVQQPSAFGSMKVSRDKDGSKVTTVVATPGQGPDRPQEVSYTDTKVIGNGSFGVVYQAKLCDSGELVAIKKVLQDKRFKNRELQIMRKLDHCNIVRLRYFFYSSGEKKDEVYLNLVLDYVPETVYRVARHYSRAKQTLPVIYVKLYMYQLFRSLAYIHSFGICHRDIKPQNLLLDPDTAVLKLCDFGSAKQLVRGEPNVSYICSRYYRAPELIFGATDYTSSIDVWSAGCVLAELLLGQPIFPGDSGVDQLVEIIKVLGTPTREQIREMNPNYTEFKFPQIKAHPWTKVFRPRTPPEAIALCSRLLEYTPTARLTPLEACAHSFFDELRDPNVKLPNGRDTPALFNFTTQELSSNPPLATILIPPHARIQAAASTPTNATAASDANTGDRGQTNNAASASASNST
Serine/threonine-protein kinase TBK1 (Homo sapiens), sequence (Q9UHD2 whole entry): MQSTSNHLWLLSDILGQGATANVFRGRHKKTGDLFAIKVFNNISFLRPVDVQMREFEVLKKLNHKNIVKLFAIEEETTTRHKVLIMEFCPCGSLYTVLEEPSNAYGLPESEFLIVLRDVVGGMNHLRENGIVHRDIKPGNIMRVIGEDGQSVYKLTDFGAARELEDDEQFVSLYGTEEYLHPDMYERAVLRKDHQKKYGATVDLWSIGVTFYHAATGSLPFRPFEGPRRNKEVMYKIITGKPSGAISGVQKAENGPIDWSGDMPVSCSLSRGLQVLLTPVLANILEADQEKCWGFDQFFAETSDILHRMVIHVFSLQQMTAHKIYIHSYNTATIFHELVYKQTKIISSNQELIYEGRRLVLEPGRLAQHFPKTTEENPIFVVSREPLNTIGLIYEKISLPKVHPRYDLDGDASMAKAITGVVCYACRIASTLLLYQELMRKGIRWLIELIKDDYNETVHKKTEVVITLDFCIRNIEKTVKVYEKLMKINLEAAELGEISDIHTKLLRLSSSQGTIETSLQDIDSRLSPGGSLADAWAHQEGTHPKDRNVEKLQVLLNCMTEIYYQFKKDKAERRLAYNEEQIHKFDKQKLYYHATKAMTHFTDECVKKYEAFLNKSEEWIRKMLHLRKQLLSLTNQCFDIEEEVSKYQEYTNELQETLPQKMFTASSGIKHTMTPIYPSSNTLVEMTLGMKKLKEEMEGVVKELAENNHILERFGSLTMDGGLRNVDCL
CDK3/Cyclin E (Homo sapiens), sequence (P24864 whole entry, looked up): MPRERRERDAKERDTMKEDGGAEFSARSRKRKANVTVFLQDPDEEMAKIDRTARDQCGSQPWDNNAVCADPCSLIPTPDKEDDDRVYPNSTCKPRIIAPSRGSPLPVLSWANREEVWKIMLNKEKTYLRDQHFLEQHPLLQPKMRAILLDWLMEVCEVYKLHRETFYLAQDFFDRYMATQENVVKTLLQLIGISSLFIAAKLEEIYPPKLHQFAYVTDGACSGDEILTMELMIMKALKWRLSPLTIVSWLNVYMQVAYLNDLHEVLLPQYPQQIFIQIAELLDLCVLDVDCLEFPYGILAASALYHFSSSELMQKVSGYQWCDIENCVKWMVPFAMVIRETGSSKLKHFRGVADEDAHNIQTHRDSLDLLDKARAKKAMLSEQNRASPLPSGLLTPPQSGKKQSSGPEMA
CDK3/Cyclin E (Homo sapiens), sequence (Q00526 whole entry, looked up): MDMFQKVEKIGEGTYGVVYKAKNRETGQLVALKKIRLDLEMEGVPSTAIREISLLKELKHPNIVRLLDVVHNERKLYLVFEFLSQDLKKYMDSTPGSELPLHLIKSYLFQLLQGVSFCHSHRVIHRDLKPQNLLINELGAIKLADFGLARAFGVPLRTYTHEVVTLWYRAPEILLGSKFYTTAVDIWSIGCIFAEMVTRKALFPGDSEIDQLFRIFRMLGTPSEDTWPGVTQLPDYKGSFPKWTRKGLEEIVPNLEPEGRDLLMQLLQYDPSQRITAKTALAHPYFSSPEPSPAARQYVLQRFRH
Casein kinase I isoform gamma-2 (Homo sapiens), sequence (P78368 whole entry, looked up, canonical isoform): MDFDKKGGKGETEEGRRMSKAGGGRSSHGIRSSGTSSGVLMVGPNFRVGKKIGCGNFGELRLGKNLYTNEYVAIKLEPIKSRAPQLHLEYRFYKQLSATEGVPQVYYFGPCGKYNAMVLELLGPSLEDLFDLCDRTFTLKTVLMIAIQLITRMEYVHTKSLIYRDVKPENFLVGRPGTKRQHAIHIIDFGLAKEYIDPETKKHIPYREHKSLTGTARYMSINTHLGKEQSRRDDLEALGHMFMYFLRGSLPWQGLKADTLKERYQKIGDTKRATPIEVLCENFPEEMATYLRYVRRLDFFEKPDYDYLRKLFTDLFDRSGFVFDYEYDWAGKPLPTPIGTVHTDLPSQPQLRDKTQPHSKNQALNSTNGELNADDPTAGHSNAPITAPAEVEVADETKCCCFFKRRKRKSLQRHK
cGMP-dependent protein kinase 1 (Homo sapiens), sequence (Q13976 whole entry): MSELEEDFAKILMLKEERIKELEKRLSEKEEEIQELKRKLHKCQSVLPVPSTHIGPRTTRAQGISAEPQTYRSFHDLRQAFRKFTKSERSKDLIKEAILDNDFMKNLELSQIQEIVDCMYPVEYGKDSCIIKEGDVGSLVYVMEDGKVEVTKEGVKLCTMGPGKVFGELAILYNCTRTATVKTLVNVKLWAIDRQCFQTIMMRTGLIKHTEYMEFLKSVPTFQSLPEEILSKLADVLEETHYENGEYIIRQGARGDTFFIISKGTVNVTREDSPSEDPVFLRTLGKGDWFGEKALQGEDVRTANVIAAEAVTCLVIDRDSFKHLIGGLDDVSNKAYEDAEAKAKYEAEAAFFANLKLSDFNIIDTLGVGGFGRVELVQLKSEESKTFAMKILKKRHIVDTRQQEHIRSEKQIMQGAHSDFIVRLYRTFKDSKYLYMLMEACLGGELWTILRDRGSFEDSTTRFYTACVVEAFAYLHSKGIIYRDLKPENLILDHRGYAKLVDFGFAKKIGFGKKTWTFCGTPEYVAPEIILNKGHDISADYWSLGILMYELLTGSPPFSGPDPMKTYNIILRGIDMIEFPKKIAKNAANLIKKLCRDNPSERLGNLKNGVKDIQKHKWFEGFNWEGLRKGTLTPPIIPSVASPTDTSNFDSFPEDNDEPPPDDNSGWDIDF

C[C@@H]1CCc2ncc(F)cc2[C@H]2CCCN2c2ccn3ncc(c3n2)C(=O)N1 [SELITRECTINIB]
residual activity [1]: 96% | residual activity [2]: 80.5% | residual activity [3]: 103% | residual activity [4]: 99% | residual activity [5]: 109% | residual activity [6]: 81% | residual activity [7]: 112% | residual activity [8]: 98% | inhibition (BT-20): inactive | residual activity [9]: 111% | residual activity [10]: 107% | residual activity [11]: 103% | residual activity [12]: 106% | residual activity [13]: 104% | inhibition (SH-4): inactive | inhibition (SCC-25): inactive | residual activity [14]: 90% | residual activity [15]: 104% | residual activity [16]: 110% | inhibition (BHT-101): inactive | residual activity [17]: 106% | residual activity [18]: 110% | residual activity [19]: 115% | residual activity [20]: 95% | Cmax [21]: 800 ng/mL | inhibition (CAMA-1): inactive | residual activity [22]: 124% | residual activity [23]: 103%
